pIC50: −log10 of the molar value. Counter-ions that a name gives are not always drawn.
Experiments:
[1] = molecular target: T1, CAT-1 (carnitine acyltransferase 1) (Rattus norvegicus, UniProt Q63704); test: Primary Screen--Inhibition of CAT-1 in isolated mitochondria; format: biochemical; parameters: inhibition: dose or concentration left out as unconfirmed; conditions: for pIC50: rat heart mitochondria, reduction of palmitoyl carnitine formation by 50%, read-out: Primary Screen IC50
T1 construct: This preparation is used as the isolated mitochondrial preparation; from tissue; host or cells: rat heart (atria removed), isolated mitochondria
T1 sequence (Q63704 1-772): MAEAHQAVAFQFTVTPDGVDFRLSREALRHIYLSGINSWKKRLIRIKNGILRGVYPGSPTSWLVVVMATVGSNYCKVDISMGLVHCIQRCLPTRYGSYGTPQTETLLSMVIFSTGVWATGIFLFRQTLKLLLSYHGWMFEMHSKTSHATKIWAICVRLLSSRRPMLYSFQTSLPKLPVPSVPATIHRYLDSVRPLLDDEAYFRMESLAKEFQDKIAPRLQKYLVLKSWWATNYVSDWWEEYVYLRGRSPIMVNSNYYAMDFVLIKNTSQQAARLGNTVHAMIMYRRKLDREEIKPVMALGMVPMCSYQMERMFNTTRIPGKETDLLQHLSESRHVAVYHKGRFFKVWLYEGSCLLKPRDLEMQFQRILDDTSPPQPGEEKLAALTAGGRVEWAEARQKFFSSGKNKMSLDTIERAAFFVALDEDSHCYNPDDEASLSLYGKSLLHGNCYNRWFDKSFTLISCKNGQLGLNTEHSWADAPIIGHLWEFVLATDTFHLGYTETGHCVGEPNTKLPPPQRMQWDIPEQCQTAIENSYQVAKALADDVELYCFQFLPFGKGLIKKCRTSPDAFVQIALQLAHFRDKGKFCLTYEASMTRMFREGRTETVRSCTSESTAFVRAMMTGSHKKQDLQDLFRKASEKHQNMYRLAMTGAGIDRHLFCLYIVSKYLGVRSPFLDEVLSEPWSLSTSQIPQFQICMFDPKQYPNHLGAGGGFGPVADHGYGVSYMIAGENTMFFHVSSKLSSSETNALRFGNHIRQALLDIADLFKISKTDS
Method: Primary Screen--Inhibitors of CAT-1 in 1Mitochondria
(a). Preparation of Mitochondria
The heart is rapidly removed from an anesthetized rat (sodium pentabarbitol) and placed in ice-cold homogenization buffer (sucrose, 250 mM; Tris, 10 mM; EDTA, 1 mM; BSA, 0.01%; pH=7.4). The atria and extraneous tissue are removed and the remainder is chopped with scissors. The pieces are rinsed in homogenization buffer before being homogenized in 10 mL of the same buffer for 5-7 seconds. The homogenate is then diluted with homogenization buffer (40 total volume) and centrifuged at 200 g for 20 minutes. The supernatant is withdrawn and centrifuged at 7000 g for 20 minutes and the resulting pellet is isolated, resuspended in 40 mL of homogenization buffer and centrifuged once more at 7000 g for 20 minutes. The isolated pellet is resuspended in 10 mL of homogenization buffer and stored at 4° C. until use. This preparation is used as the isolated mitochondrial preparation.
(b). Inhibition of CAT-1 assay
Isolated mitochondria (20 μL) are incubated with 60 μL of Tris/sucrose buffer (sucrose, 500 mM; Tris, 20 mM; KCl, 100 mM; EDTA, 2 mM; pH=7.0 plus 83 μM palmitoyl CoA, and BSA, 0.8 mg/mL and 10^-4 to 10^-10 M of the drug to be tested. After 10 minutes at 30° C., the reaction is started by addition of 10 μL of ^3 H-carnitine (final concentration=250 μM). After 5 minutes, the reaction is terminated by the addition of ice cold 70% perchloric acid (PCA). The precipitated solids so formed, containing the insoluble product of the enzyme palmitoyl carnitine, are captured on filter paper. The filter paper is washed with 7% PCA, then dried and placed in scintillation vials with 10 mL of scintillant (Aquasol, New England Nuclear) and counted for radioactivity. The rate of the reaction is assessed by the difference in radioactivity between zero time and five minutes in the absence of test compound. The ability of test compounds at selected concentrations to inhibit CAT-1 is determined by their ability to reduce the formation of the radioactive product. The IC50 of the test compound is the concentration of test compound that reduces the formation of radioactive product by 50%.

[2] = molecular target: T1, CAT-1 (carnitine acyltransferase 1); test: Secondary Screen--Inhibition of CAT-1 in intact cardiac myocytes (hypoxia-induced increase in long-chain acylcarnitines); format: cell-based; parameters: inhibition: dose or concentration left out as unconfirmed; conditions: isolated rat cardiac myocytes; for pIC50: 50% inhibition of hypoxia-induced increase in long-chain acylcarnitines; for inhibition: hypoxia
Method: Secondary Screen--Inhibition of CAT-1 in intact Cardiac Myocytes
(a) Preparation of Isolated Rat Cardiac Myocytes
Four hearts are excised from anesthetized rats and perfused retrogradly via the Langendorf technique. Each heart receives 100 mL of Krebs (NaCl, 118.4 mM; KCL, 4.6 mM; NaH2 PO4, 1.0 mM; NaHCO3, 20 mM; MgSO4, 2 mM; CaCl2, 50 μM; glucose, 11.0 mM), 100 mL of Ca++ free Krebs and finally 100 mL of 0.5% collagenase (Boehringer Mannhelm, type 1) in Hepes (NaCl, 115 mM; KCl, 5 mM; sucrose, 35 mM; glucose, 10 mM; Hepes, 10 mM; taurine, 4 mM; MgSO4, 2 mM; CaCl2, 50 μM). After these perfusions, the hearts are chopped into pieces, approx. 0.5 cm×0.5 cm and placed in four 125 mL plastic bottles along with 25 mL of collagenase/Hepes situated in a water bath maintained at 35° C. The pieces of cardiac tissue in each bottle are agitated by using a Harvard respirator connected to four glass syringes, which sucks the tissue up and down each tube during each respiratory cycle. After fifteen minutes, the collagenase/Hepes is removed and replaced with fresh collegenase/Hepes and the process repeated. The collegenase/Hepes from the subsequent fifteen minute harvests are centrifuged at 500 g to pellet the cells which are then resuspended in Hepes buffer. After six harvests, all cells are pelleted, resuspended in 2×26.5 mL of Hepes plus BSA (350 mg) and layered on top of 2×percoll gradients (21.15 mL percoll, 2.35 mL NaCl, 6 drops acetic acid). This is centfifuged at 3000 g for eight minutes forming a percoll gradient which results in viable cells being separated from damaged cells. The viable cells are removed, washed with Hepes and finally resuspended in 25 mL of Hepes.
The isolated cardiac myocytes (2 mL; approximately 1×10^6 cells) are separated into six glass pods. Into four of these are placed selected concentrations of the compound to be tested, and the cells are incubated for twenty minutes, after which the pods are centrifuged at 300 g for three minutes. 300 μL of normoxic Hepes is placed in one of the pods not containing compound and then all pods are placed in a hypoxic chamber (N2 atmosphere). Oxygen is fed via small bore steel tubes to the pod containing the normoxic buffer, while the other five pods receive pre-purified argon (99.998% pure). After two minutes, Hepes (pre-gassed with argon for at least twelve hours) is fed into the five hypoxic pods. This hypoxic environment (pO2 <10 mm Hg) is maintained for twenty minutes, after which the cells and pods are frozen by contact with a metal block precooled in liquid N2. The pods are then removed from the chamber and stored at -70° C. The carnitine assay is performed, as described below in (c), to determine the amount of long-chain acylcarnitine in the cells from the normoxic, hypoxic and hypoxic plus compound samples. […] Thus the IC50 in this screen is the concentration of test compound which produces a 50% inhibition of the hypoxia-induced increase in long-chain acylcarnitines.
(c) Long-chain Acylcarnitine Assay.
The frozen cell samples are thawed, mixed and homogenized with 40 μL of 70% PCA. The homogenate is transferred to eppendorf tubes while the homogenization tube and the glass pod is rinsed with 500 μL of 7% PCA, with the rinse being added to the eppendorf tube. This is then centrifuged at 1000 g for two minutes to pellet the precipitate (containing the long-chain acylcarnitine) and the supernatant is discarded. The pellet is washed twice with 500 μL of 7% PCA, the supernatants being discarded. The pellet is then hydrolyzed (to separate the acyl unit from carnitine to yield free carnitine) by the addition of 200 μL of aleionized H2 O and 50 μL of 5N KOH and incubated at 70° C. for ninety minutes.

Row | Structure (SMILES) | pIC50 [1] | pIC50 [2] | inhibition [2] [%] | inhibition [1] [%]
1 | CN(C)CCOC(=O)C(=O)c1ccc(OCCOc2ccc3ccccc3c2)cc1 [Example 106, 4-[[2-(2-naphthalenyloxy)ethyl]oxy]-alpha-oxobenzeneacetic acid 2-(dimethylamino)ethyl ester] | 7.05 | 6.00 |  | 
2 | O=C(O)C(=O)c1ccc(OCCCc2ccc3ccccc3c2)cc1 [Example 94, 4-[[3-(2-naphthalenyl)propyl]oxy]-alpha-oxobenzeneacetic acid] | 7.10 | 4.92 |  | 
3 | CC(C)c1nc(-c2ccccc2)n(-c2ccc(F)cc2)c1/C=C/COc1ccc(C(=O)C(=O)O)cc1 [Example 243, (E)-4-[3-[1-(4-fluorophenyl)-4-(1-methylethyl)-2-phenyl-1H-imidazol-5-yl]-2-propenyloxy]-alpha-oxobenzeneacetic acid] |  | 5.15 |  | 
4 | O=C(O)C(=O)c1ccc(OCCOc2ccc3ccccc3c2)c(F)c1 [Example 199, 3-fluoro-4-[2-(2-naphthalenyloxy)ethoxy]-alpha-oxobenzeneacetic acid] | 6.77 | 6.22 |  | 
5 | O=C(O)C(=O)c1ccc(OCCCC(=O)c2ccc3ccccc3c2)cc1 [Example 282, 4-[[4-(2-naphthalenyl)-4-oxobutyl]oxy]-alpha-oxobenzeneacetic acid] | 6.40 | 5.10 |  | 
6 | O=C(O)C(=O)c1ccc(OCCCCCCc2cccc(O)c2O)cc1 [Example 260, 4-[6-(2,3-dihydroxyphenyl)hexyloxy]-alpha-oxobenzeneacetic acid] | 5.40 |  | 94 | 
7 | O=C(OCCOCCOCCO)C(=O)c1ccc(OCCOc2ccc3ccccc3c2)cc1 [Example 105, 4-[[2-(2-naphthalenyloxy)ethyl]oxy]-alpha-oxobenzeneacetic acid 2-[2-(2-hydroxyethoxy)ethoxy]ethyl ester] | 7.40 | 4.12 |  | 
8 | O=C(O)/C(=N\O)c1ccc(OCCOc2ccc3ccccc3c2)cc1 [Example 301, (Z)-alpha-(hydroxyimino)-4-[2-(2-naphthalenyloxy)ethoxy]benzeneacetic acid] | 6.24 | 5.70 |  | 
9 | CCC(C)(C)C(=O)OCc1cccc(C)c1/C=C/COc1ccc(C(=O)C(=O)O)cc1 [Example 220, (E)-4-[3-[2-[(2,2-dimethyl-1-oxobutoxy)methyl]-6-methylphenyl]-2-propenyloxy]-alpha-oxobenzeneacetic acid] | 5.80 | 7.05 |  | 
10 | O=C(O)C(=O)c1ccc(OCCCc2ccccc2)cc1 [Example 23, 4-[(3-phenylpropyl)oxy]-alpha-oxobenzeneacetic acid] | 6.30 | 4.43 |  | 
11 | O=C(NO)C(=O)c1ccc(OCCOc2ccc3ccccc3c2)s1 [Example 300, N-hydroxy-5-[2-(2-naphthalenyloxy)ethoxy]-alpha-oxo-2-thiopheneacetamide] | 5.68 | 5.30 |  | 
12 | CCC(C)(C)C(=O)OCc1cccc(C)c1/C=C\COc1ccc(C(=O)C(=O)O)cc1 [Example 215, (Z)-4-[3-[2-(2,2-dimethyl-1-oxobutoxy)methyl]-6-methylphenyl]-2-propenyloxy]-alpha-oxobenzeneacetic acid (1:1) morpholine salt] | 5.70 | 5.05 |  | 
13 | CO/N=C(/C(=O)O)c1ccc(OCCOc2ccc3ccccc3c2)s1 [Example 306, (Z)-alpha-(methoxyimino)-5-[2-(2-naphthalenyloxy)ethoxy]-2-thiopheneaceticacid (2:1) hydrate] | 6.52 | 5.15 |  | 
14 | O=C(COc1ccc(C(=O)C(=O)O)cc1)NC1CCCCCCC1 [Example 247, 4-[2-(cyclooctylamino)-2-oxoethoxy]-alpha-oxobenzeneacetic acid] | 6.40 | 4.52 |  | 
15 | CC(C)n1c(/C=C/COc2ccc(C(=O)C(=O)O)cc2)c(-c2ccc(F)cc2)c2ccccc21 [Example 241, (E)-4-[3-[3-(4-fluorophenyl)-1-(1-methylethyl)-1H-indole-2-yl]-2-propenyloxy]-alpha-oxobenzeneacetic acid (1:1) morpholine salt] |  | 4.92 |  | 
16 | CC(C)c1cccc(-c2ccc(F)cc2)c1OCCOc1ccc(C(=O)C(=O)O)cc1 [Example 234, 4-[2-[4'-fluoro-3-(1-methylethyl)[1,1'-biphenyl]-2-yloxy]ethoxy]-alpha-oxobenzeneacetic acid] |  |  | 90 | 
17 | O=C(O)C(=O)c1ccc(OCC(O)COc2ccccc2)cc1 (racemic) [Example 80, rac.-4-[[(2-hydroxy-3-phenoxy)propyl]oxy]-alpha-oxobenzeneacetic acid] | 5.10 |  |  | 
18 | O=C(O)C(=O)c1ccc(OCC(=O)C2CCCCCCC2)cc1 [Example 290, 4-[2-(cyclooctyl)-2-oxoethoxy]-alpha-oxobenzeneacetic acid] | 6.00 |  |  | 
19 | O=C(O)C(=O)c1ccc(OCCOc2ccc3cc4ccccc4cc3c2)cc1 [Example 108, 4-[[2-(2-anthracenyloxy)ethyl]oxy]-alpha-oxobenzeneacetic acid] | 6.70 |  |  | 
20 | O=C(O)C(=O)c1ccc(OC/C=C\c2ccccc2)cc1 [Example 33, (Z)-alpha-oxo-4-[(3-phenyl-2-propenyl)oxy]benzeneacetic acid] | 6.00 |  |  | 
21 | O=C(O)C(=O)c1ccc(OCCCn2c(=O)ccc3ccccc32)cc1 [Example 264, 4-[3-(1,2-dihydro-2-oxo-1-quinolinyl)propoxy]-alpha-oxobenzeneacetic acid] | 4.92 |  |  | 
22 | O=C(O)C(=O)c1ccc(OCCOc2ccc(-c3ccccc3)cc2)cc1 [Example 57, 4-[[2-[4-(1,1'-biphenyl)oxy]ethyl]oxy]-alpha-oxobenzeneacetic acid] | 5.30 |  |  | 
23 | CCCc1c(OCCCOc2ccc(C(=O)C(=O)O)cc2)ccc(C(C)=O)c1OC [Example 271, 4-[3-[4-acetyl-3-methoxy-2-propylphenoxy)propoxy]-alpha-oxobenzeneacetic acid] | 6.34 |  |  | 
24 | O=C(O)C(=O)c1ccc(OCCCOc2ccccc2)cc1 [Example 69, alpha-oxo-4-[[(3-phenoxy)propyl]oxy]benzeneacetic acid] | 5.70 |  |  | 
25 | O=C(O)C(=O)c1cc(F)c(OCCOc2ccc3ccccc3c2)c(F)c1 [Example 203, 3,5-difluoro-4-[2-(2-naphthalenyloxy)ethoxy]-alpha-oxobenzeneacetic acid] |  |  |  | 37
26 | O=C(O)C(=O)c1ccc(CCCNC(=O)c2ccc3ccccc3c2)cc1 [Example 147, 4-[3-[[(2-naphthalenyl)carbonyl]amino]propyl]-alpha-oxobenzeneacetic acid] | 5.21 |  |  | 
27 | O=C(O)C(=O)c1ccc(OCCCNC(=O)c2ccc3ccccc3c2)cc1 [Example 140, 4-[[3-(2-naphthoylamino)propyl]oxy]-alpha-oxobenzeneacetic acid] | 6.82 |  |  | 
28 | COc1cc(OCCOc2ccc3ccccc3c2)cc(OC)c1C(=O)C(=O)O [Example 195, 2,6-dimethoxy-4-[2-(2-naphthalenyloxy)ethoxy]-alpha-oxobenzeneacetic acid] |  |  |  | 24
29 | O=C(O)C(=O)c1ccc(OCCCCCCOc2ccccc2)cc1 [Example 75, alpha-oxo-4-[[(6-phenoxy)hexyl]oxy]benzeneacetic acid] | 5.00 |  |  | 
30 | O=C(COc1ccc2ccccc2c1)Nc1ccc(C(=O)C(=O)O)cc1 [Example 153, 4-[[2-(2-naphthalenyloxy)acetyl]amino]-alpha-oxobenzeneacetic acid] | 6.03 |  |  | 

From patent US5344843A, “Cat-1 inhibitors, pharmaceutical compositions and methods of use” (Hoffman-La Roche Inc., priority 1992, dated 1994)
